What all share (assay): NCI tumour cell line growth inhibition, 48 h
Assay [1] relates to UACC-257 melanoma.
Assay [2] concerns SF-295 CNS.
The subject of assay [3] is NCI-H522 lung.
Assay [4] concerns HCT-116 colon.
For assay [5], the system named is SNB-75 CNS.
Assay [6] has as its system HOP-92 NSCLC.
The subject of assay [7] is OVCAR-8 ovarian.
Assay [8] has as its system OVCAR-4 ovarian.
Assay [9] relates to HL-60(TB) leukemia.
The test system of assay [10] is EKVX NSCLC.

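48-hour exposure; five concentrations; linearly interpolated endpoints. Here, GI50 denotes the concentration required for 50% inhibition of growth. TGI is the concentration that stops growth completely.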

`COc1cccc(N2C(=O)C3c4[nH]c5ccccc5c4C4CCCC4C3C2=O)c1` (centres undefined): the TGI in assay [1] was above 10 µM; in assay [2] it was above 10 µM; in [3], above 10 µM; in assay [4], 7.16 µM; in [5] it was 5.77 µM; in [6], above 10 µM. For the same compound, the TGI was above 10 µM in assay [7], 4.76 µM in [8], above 10 µM in assay [9] and above 10 µM in assay [10].
Regarding `O=S(=O)(/C=C/c1ccc(F)cc1)Cc1ccc(CS(=O)(=O)/C=C/c2ccc(F)cc2)cc1`, the TGI in assay [1], in assay [2], in [3], in [4], in [5] and in assay [6] was above 100 µM throughout. Moreover, the TGI in assay [7], in assay [8], in assay [9] and in assay [10] was above 100 µM each time.
Take `C[C@H](OCc1ccccc1)C(=O)N1CCS(=O)(=O)N2CCC[C@@H]2C1=O`: the TGI in assay [1], in assay [2], in [3], in assay [4], in [5] and in [6] was above 100 µM each time. Moreover, the TGI in assay [7], in [8], in assay [9] and in assay [10] was above 100 µM in each case.
For `O=C1c2cc3c(cc2[C@@H]2[C@H]1c1ccc([N+](=O)[O-])cc1C(=O)N2CCCBr)OCO3`, the GI50 in [1] is below 0.01 µM; in assay [2] it was below 10 nM; in assay [3], below 0.0266 µM; in assay [5], below 0.01 µM; in assay [6], below 0.01 µM; in assay [7], below 0.01 µM. The GI50 in assay [8] was 0.0771 µM; in assay [9] it was below 0.01 µM; in assay [10], 37.9 nM. For the same compound, the TGI in [1] was above 100 µM; in assay [5], 0.0775 µM; in [6], below 0.01 µM; in assay [7], 0.271 µM; in [8], 7 µM; in assay [9], above 100 µM. Moreover, in assay [10], the TGI was 0.501 µM.
Regarding `O=C1C(c2ccccc2)=C(O)c2cccc3cccc1c23`, the TGI in assay [1], in assay [2], in assay [3], in assay [4], in [5] and in assay [6] was above 100 µM throughout. Moreover, the TGI in [7], in [8], in [9] and in assay [10] was above 100 µM each time.
Turning to `O=C1NNC2(C(=O)N1)c1ccccc1-c1ccccc12`, the TGI in assay [1], in [2], in assay [3], in assay [4], in assay [5] and in assay [6] was above 10 µM in each case. Further, the TGI in [7], in assay [8], in assay [9] and in assay [10] was above 10 µM throughout.
For `Cc1ccc2c(c1)-c1c3c(nn1-c1ccccc1)-c1ccccc1SC3O2` (centres undefined), the TGI in [1], in assay [2], in [3], in assay [4], in [5] and in assay [6] was above 100 µM throughout. Further, the TGI in assay [7], in [9] and in assay [10] was above 100 µM throughout.
For the compound `COc1ccc(/C=C/c2cc(OC)c(OC)c(OC)c2)cc1`, the TGI in [1] was above 100 µM; in assay [2], 61.3 µM; in assay [3], 40.9 µM; in assay [4], above 77.2 µM; in assay [5], above 21.7 µM; in [6] it was above 100 µM. The TGI in assay [7], in assay [8] and in assay [10] was above 100 µM each time. In addition, the GI50 was 21900 nM in [2] and 14.1 µM in assay [3].
Turning to `COc1cc2ccnc3c2c(c1OC)-c1coc(SC)c1-3`, the TGI in assay [1] is above 100 µM; in assay [2], above 100 µM; in [3], above 100 µM; in assay [4] it was above 100 µM; in [5], 79.3 µM; in assay [6] it was above 100 µM. The TGI in assay [7], in assay [8] and in [9] was above 100 µM in each case.
For the compound `Cc1ccc(S(=O)(=O)c2c(COC(=O)c3cccc(C)c3)c(-c3ccccc3)nn2C)cc1`, the GI50 is above 100 µM in [1]; above 100000 nM in assay [2]; above 100 µM in assay [3]; above 100 µM in assay [4]; above 100 µM in assay [5]; above 100 µM in [6]. Also, the GI50 in assay [7], in assay [8] and in assay [9] was above 100 µM in each case. For the same compound, the TGI in assay [1], in [2], in assay [3], in assay [4], in assay [5] and in assay [6] was above 100 µM each time. Further, the TGI in [7], in assay [8] and in [9] was above 100 µM throughout.
As for `COc1cc(C(=O)c2c(-c3ccccc3)oc3c(OC)cccc23)cc(OC)c1OC`, the GI50 is 28.3 µM in [1]; 36.3 nM in assay [2]; 0.0348 µM in assay [3]; 0.0234 µM in [5]; 0.108 µM in [6]; 0.11 µM in [7]. Further, the values for the GI50 in assay [9] and in [10] were 0.0448 µM and 67.4 nM, respectively. Also, the TGI in assay [1] is above 100 µM; in assay [2] it was 1.96 µM; in [3] it was above 34.4 µM; in [5], 0.552 µM; in assay [6] it was 21.5 µM; in assay [7], above 100 µM. Moreover, the TGI is above 100 µM in assay [8], 0.2 µM in assay [9] and above 100 µM in assay [10].
In the case of `Cc1cc2c(cc1Cl)SC1=NN(C)C(C)N1S2(=O)=O` (centres undefined), the GI50 was above 100 µM in assay [1]; above 100000 nM in [2]; 88.8 µM in assay [3]; above 100 µM in assay [4]; 35.3 µM in assay [5]; 19.3 µM in [6]. Moreover, the results for the GI50 in assay [7], in [8] and in [10] were above 100 µM, 74.8 µM and above 100000 nM, respectively. The TGI was above 100 µM in [1]; above 100 µM in assay [2]; above 100 µM in assay [3]; above 100 µM in assay [4]; above 100 µM in assay [5]; 80.9 µM in assay [6]. Besides, the TGI in assay [7], in [8] and in assay [10] was above 100 µM in each case.
With `O=C1NC(Nc2ccccc2)=NC(C(F)(F)F)(C(F)(F)F)N1`, the TGI is above 100 µM in assay [1]; above 100 µM in [2]; above 100 µM in [4]; 87.6 µM in [5]; 53.4 µM in [6]; above 100 µM in [7]. Besides, the TGI in [8], in [9] and in assay [10] was above 100 µM each time.
Consider `Cn1ncnc1[C@H]1c2n[nH]c(=O)c3cc(F)cc(c23)N[C@@H]1c1ccc(F)cc1`, for which the GI50 in assay [1] was above 100 µM; in assay [2], 440 nM; in assay [3] it was above 100 µM; in assay [4] it was above 80.4 µM; in assay [5], 15.1 µM; in assay [7] it was above 100 µM. Also, the GI50 is 14.6 µM in assay [8] and 10.3 µM in assay [9]. The TGI in assay [1] is above 100 µM; in [2], above 19.9 µM; in [3], above 100 µM; in assay [4], above 100 µM; in assay [5], above 100 µM; in assay [6], above 100 µM. Moreover, the TGI in assay [7], in assay [8] and in assay [9] was above 100 µM in each case.
Take `COc1cc(OC)c(C/C=C/c2ccccc2)cc1O`: the TGI in [1] was 55.6 µM; in [3] it was 27.2 µM; in assay [4] it was 30 µM; in assay [5], 33.9 µM; in assay [6], 26.5 µM; in [7], 32.8 µM. Further, the TGI came out at 33.5 µM in assay [8], 52.2 µM in assay [9] and 33.6 µM in assay [10].
With `C=C1CC2OC(=O)C(=C)C2C(O)C2C(=C)CCC12` (centres undefined), the TGI in [1] came to 18.8 µM; in [2] it was 22.8 µM; in [4], 14.5 µM; in assay [5] it was 21.5 µM; in assay [6], 5.84 µM; in [7], 18 µM. Besides, the TGI in assay [9] stood at 6.32 µM; in assay [10] it was 19.7 µM.
With `c1cncc(C2N3CCCCC3[C@@H]3c4[nH]c5ccccc5c4CCN23)c1` (some centres undefined), the TGI in [1], in assay [2], in assay [4], in assay [5], in assay [6] and in assay [7] was above 100 µM in each case. In addition, the TGI in assay [8], in [9] and in assay [10] was above 100 µM throughout.
Regarding `COc1ccc2c(c1)C(=O)c1ccc(OC)cc1C2=S`, the TGI in assay [1] is above 100 µM; in [2] it was above 100 µM; in assay [3], above 100 µM; in assay [4] it was above 100 µM; in assay [5] it was 87.4 µM; in assay [6] it was above 100 µM. In addition, the TGI in assay [7], in [9] and in assay [10] was above 100 µM each time.

The values are drawn from PubChem BioAssay (NCI).
